Assay results reported in patent publication US20200071667A1, “COMPOSITION COMPRISING GLYCYRRHIZIN FOR INDUCING DIFFERENTIATION INTO MYELOID-DERIVED SUPPRESSOR CELL FROM MYELOID CELL” (Konkuk University Glocal Industry-Academic Collabo, priority 2018, published 2020).

Legend:
myeloid cells = test: Differentiation of LPS-treated mouse myeloid cells treated with glycyrrhizin (in vitro), flow cytometric analysis; format: cell-based, C57BL/6 mice; settings: LPS 1 ng/ml, GR 100 μg/ml, incubation 3 days
Procedure: To verify the in vivo experimental results of Example <2-1>, flow cytometric analysis was used to confirm whether differentiation into CD11b+Gr1 myeloid cells or MDSCs from myeloid cells was induced when myeloid cells of mice were treated with glycyrrhizin (GR).
Specifically, myeloid cells were obtained by washing the femoral region of each of 8-week-old male C57BL/6 male mice without specific pathogens with a Roswell Park Memorial Institute (RPMI) 1640 medium in a sterile state using a syringe with a 27-gauge needle. Red blood cells (RBCs) of the collected bone marrow were lysed with an erythrolysis solution, and then the remaining cells were treated with 10% fetal bovine serum, 40 ng/ml of IL-6, and 40 ng/ml of granulocyte-macrophage colony stimulating factor at 37° C. Thereafter, only 1 ng/ml of LPS was treated (LPS group) or 100 μg/ml of GR was additionally treated (LPS+GR group) after LPS treatment. The control was treated with 0.1 ml of PBS. After incubation for 3 days, the same flow cytometric analysis as in Example <2-1> was performed to measure the absolute number of myeloid cells of each group, and then all the obtained data was analyzed using FlowJo software (Tree Star Inc., Ashland, Oreg., USA) to determine the ratio of MDSCs to CD11b+Gr1 myeloid cells.

[1] = test system: tumor necrosis factor (TNF)-α; test: ELISA of TNF-α in BALF and blood of mice with LPS-induced sepsis; format: in vivo, C57BL/6 mice; settings: 12 hours after final injection
Procedure: (§1) Specifically, 0.1 ml of phosphate buffered saline (PBS; Gibco, Grand Island, N.Y., USA) was injected intraperitoneally (i.p.) into mice of the control, and 12 hours after the injection, 0.1 ml of PBS was intraperitoneally injected again into each mouse. 1 μg of LPS (Escherichia coli serotype 0111:B4, Sigma-Aldrich, St. Louis, Mo., USA) dissolved in 0.1 ml of PBS was injected intraperitoneally (i.p.) into mice of the LPS group to induce sepsis, and 12 hours after sepsis induction, 0.1 ml of PBS was intraperitoneally injected into each mouse. […]
(§2) Specifically, for the analysis of bronchoalveolar lavage fluid and blood, 12 hours after the final injection into mice of each experimental group of Example 1, 1 μg/g of Zoletil®50 (a combined preparation of tiletamine and zolazepam, Virbac Laboratories, Carros, France) as an anesthetic and 0.1 U/g of heparin sodium (Green Cross Co., Yongin, Korea) were intraperitoneally injected into each mouse to minimize the effect of aches or pains on immunity. […] The levels of tumor necrosis factor (TNF)-α, IL-6, and IL-1β in BALF and blood were measured using a mouse enzyme-linked ELISA kit (R&D Systems Inc., Minneapolis, Minn., USA) according to the manufacturer's instructions. Samples collected from each group were analyzed in triplicate.

IL-1β = test: ELISA of IL-1β in BALF and blood of mice with LPS-induced sepsis; format: in vivo, C57BL/6 mice; settings: 12 hours after final injection
Procedure: as §1, §2

[2] = test system: Toll-like receptor 4 (TLR4); test: Immunohistochemical staining for TLR4 in heart or lung tissues; format: in vivo, C57BL/6 mice; settings: heart and lungs
Procedure: (§3) Specifically, 0.1 ml of phosphate buffered saline (PBS; Gibco, Grand Island, N.Y., USA) was injected intraperitoneally (i.p.) into mice of the control, and 12 hours after the injection, 0.1 ml of PBS was intraperitoneally injected again into each mouse. 1 μg of LPS (Escherichia coli serotype 0111:B4, Sigma-Aldrich, St. Louis, Mo., USA) dissolved in 0.1 ml of PBS was injected intraperitoneally (i.p.) into mice of the LPS group to induce sepsis, and 12 hours after sepsis induction, 0.1 ml of PBS was intraperitoneally injected into each mouse. 1 μg of LPS and 100 mg/kg of ammonium glycyrrhizinate (GR; Abcam Inc., Cambridge, UK) dissolved in 0.1 ml of PBS were injected intraperitoneally (i.p.) into mice of the LPS+GR group, and 12 hours after the injection, 100 mg/kg of ammonium glycyrrhizinate dissolved in 0.1 ml of PBS was intraperitoneally injected into each mouse.
(§4) It was determined whether TLR4 expression levels were inhibited when mice with sepsis induced by LPS were treated with glycyrrhizin. The expression level of Toll-like receptor 4 (TLR4) was confirmed using immunohistochemistry and western blot analysis.
Specifically, for immunohistochemical staining for TLR4, the heart or lung tissues of mice of each experimental group of Example 1 were cut to 4 μm after deparaffinization treatment. […] TLR4 intensity was quantified using NIH Image J software.

[3] = test system: Toll-like receptor 4 (TLR4); test: Western blotting of TLR4 in heart or lung tissues; format: in vivo, C57BL/6 mice
Procedure: as §3, §4
Western blotting was performed to confirm the intensity of TLR4 staining. […] Band intensity was quantified using Luminescent Image Analyzer LAS-3000 (FUJIFILM Medical Systems, Hanover Park, Ill., USA). The density of each band was analyzed using NIH Image J software.

[4] = parenthesised line under cell number

lipopolysaccharide [LPS]
CD11b + Gr1 myeloid cells (number of cells) (myeloid cells): 16,500 ± 400 | MDSCs (number of cells) (myeloid cells): 5,200 ± 300 | MDSCs/CD11b + Gr1 myeloid cells × 100 (%) (myeloid cells): 32.45 ± 2.69% | Total cell count (myeloid cells): 47,300 ± 1,200 | CD11b + Gr1 myeloid cells (value in parentheses) (myeloid cells; [4]): (34.61 ± 4.51) | MDSCs (value in parentheses) (myeloid cells; [4]): (11.23 ± 1.25) | TNF-α ([1]; BALF): 284.20 ± 56.96 pg/µL | TNF-α ([1]; Blood): 98.78 ± 9.17 pg/µL | IL-1β (IL-1β; BALF): 164.82 ± 17.81 pg/µL | IL-1β (IL-1β; Blood): 126.28 ± 7.61 pg/µL | expression level of TLR4 by immunohistochemistry [2]: significantly higher in both the heart and the lungs compared to the control | TLR4 intensity by western blotting ([3]; heart): 403.9±29.3 | TLR4 intensity by western blotting ([3]; lungs): 350.7±21.3
